Test results as given in patent US12600705B2, “Heat shock protein modulators and anti-Huntington disease therapeutic agents” (UNIVERSITY OF PITTSBURGH-OF THE COMMONWEALTH SYSTEM OF …, priority 2020, dated 2026).

Legend:
[1] = system: HEK293 cells that express an HTT exon containing 17 glutamine repeats (HTT17Q-mCherry); assay: Huntington's Disease (HD) model: protein aggregates (puncta) per cell in HEK293H cells transfected with HTT17Q-mCherry; settings: 6 h; for Effectiveness compared to MAL1-271 (Less/Similar/More) / Effectiveness compared to the MAL1-271 positive control: 10 μM; for Effectiveness compared to MAL1-271 (Less/Similar/More): blunting formation of toxic aggregates; for Effect on aggregate suppression compared to the MAL1-271 positive control: Example 1, FIG. 2, 10 μM compound; for Effectiveness compared to the MAL1-271 positive control: Example 2
Method: Cells were stained for confocal microscope imaging with 4′,6-diamidino-2-phenylindole (DAPI), a fluorescent dye with high affinity to adenine-thymine rich DNA regions. A bright spot detection tool was used to identify and quantify the number of protein aggregates (“dots”) per cell.
Biological Assays: For HD assays, HEK293H cells were grown in DMEM (Sigma-Aldrich, Saint Louis, MO) supplemented with 10% fetal bovine serum (GE Healthcare Hyclone) and 1% penicillin/streptomycin (Thermo Fisher Scientific, Waltham, MA) at 37° C. and at a 5% CO2 atmosphere. Cells were seeded at 250,000 cells/plate in Poly-D-Lysine Coated 35 mm MatTek dishes (P35GC-1.5-10-C, MatTek Corporation, Ashland, MA). After 24 h growth, a total of 4 μg of mCherry tagged-polyglutamine-expanded (17-polyQ-expanded) huntingtin (HTT) was introduced using Lipofectamine 2000 (Invitrogen, Thermo Fisher Scientific) according to the manufacturer's instructions. […] The following day, cells were treated with vehicle (DMSO) as control or with 10 μM of the examined compounds for 6 h. The cells were then washed with PBS and fixed in 4% formaldehyde for 15 min at room temperature. Finally, cells were stained with DAPI (1:250 in PBS) for 4 h and maintained in PBS for confocal microscope imaging.
Complete volumes of cells were acquired at 0.5-μm steps, and volumes were reconstructed and analyzed using Nikon's NIS-Elements software (Nikon Instrument, Melville, NY). Bright spot detection tool was used to identify and quantify the number of protein aggregates (“dots”) per cell. A non-parametric Kruskal-Wallis test analysis was performed using Prism software (GraphPad, La Jolla, CA). Statistically significant differences between control (DMSO) and compound treated samples are indicated by asterisks in figure. To obtain representative images from this experiment, maximum intensity projections of 0.5-μm steps though the entire cell were generated using Nikon's NIS-Elements software.
Cells were stained for confocal microscope imaging with 4′,6-diamidino-2-phenylindole (DAPI) and bright spot detection tool was used to identify and quantify the number of protein aggregates (“dots”) per cell.

[2] = system: HDAC 1-3; assay: HDAC 1-3 assay (BioVision kit, HeLa nuclear extract); settings: for Percent inhibition HDAC 1-3: Compound tested at 1 uM
Method: For HDAC 1-3 assays, kits from BioVision Incorporated (https://www.biovision.com/) were used and their recommended protocols followed. […] Each compound was dissolved in DMSO to generate a 100 μM stock solution, then diluted using HPLC-grade water to prepare 10 μM, 2 μM, and 1 μM solutions. These solutions were used for the assays. […] Assays utilized a BioTek Synergy H1 microplate reader and black Nunc MicroWell 96-well optical-bottom plates with polymer base.
HDAC 1-3: 10 μL of each diluted compound (10 μM) and 40 μL of HPLC-grade water were mixed and added into a well on the plate. […] Then, 50 μL of the reaction mixture was added to each well and the solution was mixed thoroughly. The reaction mixture consisted of 500 μL of 10×HDAC Assay buffer, 100 μL of HeLa nuclear extract, 250 μL of HDAC substrate, and 1.65 mL of HPLC-grade water. The plate was then warmed in an incubator at 37° C. with a rocker platform and was incubated for 30 min. After the incubation, 10 μL of Lysine Developer solution was added to each well. The plate was kept in the incubator for an additional 30 min. Afterwards, the plate was analyzed using a BioTek Synergy H1 microplate reader, taking two independent readings per well that were subsequently averaged.

CCOC(=O)C1=CN(Cc2ccc(C(=O)NO)cc2)S(=O)(=O)N(C)C1c1ccc(Cl)cc1Cl (single isomer, unassigned; (+)) [(+)-951_66, (+)-Ethyl 3-(2,4-dichlorophenyl)-6-(4-(hydroxycarbamoyl)benzyl)-2-methyl-3,6-dihydro-2H-1,2,6-thiadiazine-4-carboxylate 1,1-dioxide]
Effectiveness compared to MAL1-271 (Less/Similar/More) [1]: Less

CCOC(=O)C1=CN(Cc2ccc(C(=O)NO)cc2)S(=O)(=O)N(C)C1c1ccc(Cl)cc1Cl (single isomer, unassigned; (-)) [(−)-951_67, (−)-Ethyl 3-(2,4-dichlorophenyl)-6-(4-(hydroxycarbamoyl)benzyl)-2-methyl-3,6-dihydro-2H-1,2,6-thiadiazine-4-carboxylate 1,1-dioxide]
Effectiveness compared to MAL1-271 (Less/Similar/More) [1]: Similar

CCOC(=O)C1=CN(CCCC(=O)OC)S(=O)(=O)NC1c1ccc(Cl)cc1Cl (stereo not drawn) [Compound 5g, Ethyl 3-(2,4-dichlorophenyl)-6-(4-methoxy-4-oxobutyl)-3,6-dihydro-2H-1,2,6-thiadiazine-4-carboxylate 1,1-dioxide]
Effect on aggregate suppression compared to the MAL1-271 positive control [1]: less effective

CCOC(=O)C1=CN(Cc2ccc(CO)cc2)S(=O)(=O)NC1c1ccc(Cl)cc1Cl (stereo not drawn) [Compound 5h, Ethyl 3-(2,4-dichlorophenyl)-6-(4-(hydroxymethyl)benzyl)-3,6-dihydro-2H-1,2,6-thiadiazine-4-carboxylate 1,1-dioxide]
Effect on aggregate suppression compared to the MAL1-271 positive control [1]: less effective

CCOC(=O)C1=CN(C(=O)OC(C)(C)C)S(=O)(=O)N(Cc2ccc(C(=O)OC(C)(C)C)cc2)C1c1ccc(Cl)cc1Cl (stereo not drawn) [Compound 6i, 2-(tert-Butyl) 4-ethyl 6-(4-(tert-butoxycarbonyl)benzyl)-5-(2,4-dichlorophenyl)-5,6-dihydro-2H-1,2,6-thiadiazine-2,4-dicarboxylate 1,1-dioxide]
Effect on aggregate suppression compared to the MAL1-271 positive control [1]: less effective

CCOC(=O)C1=CN(Cc2ccc(C(=O)O)cc2)S(=O)(=O)NC1c1ccc(Cl)cc1Cl (stereo not drawn) [Compound 7h, 4-((5-(2,4-Dichlorophenyl)-4-(ethoxycarbonyl)-1,1-dioxido-5,6-dihydro-2H-1,2,6-thiadiazin-2-yl)methyl)benzoic acid]
Effect on aggregate suppression compared to the MAL1-271 positive control [1]: less effective

O=C(O)CCCN1C=C(C(=O)O)C(c2ccc(Cl)cc2Cl)NS1(=O)=O (stereo not drawn) [Compound 9g, 6-(3-Carboxypropyl)-3-(2,4-dichlorophenyl)-3,6-dihydro-2H-1,2,6-thiadiazine-4-carboxylic acid 1,1-dioxide]
Effect on aggregate suppression compared to the MAL1-271 positive control [1]: less effective

CCOC(=O)C1=CN(CCCC(=O)NO)S(=O)(=O)NC1c1ccc(Cl)cc1Cl (stereo not drawn) [Compound 12g, Ethyl 3-(2,4-dichlorophenyl)-6-(4-(hydroxyamino)-4-oxobutyl)-3,6-dihydro-2H-1,2,6-thiadiazine-4-carboxylate 1,1-dioxide]
Percent inhibition HDAC 1-3 [2]: 1%

CCOC(=O)C1=CN(Cc2ccc(C(=O)NO)cc2)S(=O)(=O)NC1c1ccc(Cl)cc1Cl (stereo not drawn) [Compound 12h, Ethyl 3-(2,4-dichlorophenyl)-6-(4-(hydroxycarbamoyl)benzyl)-3,6-dihydro-2H-1,2,6-thiadiazine-4-carboxylate 1,1-dioxide]
Percent inhibition HDAC 1-3 [2]: 22%

COC(=O)CCCN1C=C(C(=O)OCc2ccccc2)C(c2ccc(Cl)cc2Cl)NS1(=O)=O (stereo not drawn) [Compound 18g, Benzyl 3-(2,4-dichlorophenyl)-6-(4-methoxy-4-oxobutyl)-3,6-dihydro-2H-1,2,6-thiadiazine-4-carboxylate 1,1-dioxide]
Effect on aggregate suppression compared to the MAL1-271 positive control [1]: less effective

CCOC(=O)C1=CN(Cc2ccc(C(=O)NO)cc2)S(=O)(=O)N(C)C1c1ccc(Cl)cc1Cl (stereo not drawn) [Compound 930_62, Ethyl 3-(2,4-dichlorophenyl)-6-(4-(hydroxycarbamoyl)benzyl)-2-methyl-3,6-dihydro-2H-1,2,6-thiadiazine-4-carboxylate 1,1-dioxide]
Effectiveness compared to MAL1-271 (Less/Similar/More) [1]: More
Effectiveness compared to the MAL1-271 positive control [1]: more effective

CCOC(=O)C1=CN(Cc2ccc(C(=O)NO)cc2)S(=O)(=O)N(CC2CC2)C1c1ccc(Cl)cc1Cl (stereo not drawn) [Compound 930_63, Ethyl 2-(cyclopropylmethyl)-3-(2,4-dichlorophenyl)-6-(4-(hydroxycarbamoyl)benzyl)-3,6-dihydro-2H-1,2,6-thiadiazine-4-carboxylate 1,1-dioxide]
Effectiveness compared to MAL1-271 (Less/Similar/More) [1]: More
Effectiveness compared to the MAL1-271 positive control [1]: more effective

O=C(O)CCCN1C=C(C(=O)OCc2ccc(Cl)cc2Cl)C(c2ccc(Cl)cc2Cl)NS1(=O)=O (stereo not drawn) [Compound 959_30]
Effectiveness compared to MAL1-271 (Less/Similar/More) [1]: Similar

O=C(CCCN1C=C(C(=O)OCc2ccccc2)C(c2ccc(Cl)cc2Cl)NS1(=O)=O)OCCN1CCOCC1 (stereo not drawn) [Compound 959_74, Benzyl 3-(2,4-dichlorophenyl)-6-(4-(2-morpholinoethoxy)-4-oxobutyl)-3,6-dihydro-2H-1,2,6-thiadiazine-4-carboxylate 1,1-dioxide]
Effectiveness compared to MAL1-271 (Less/Similar/More) [1]: Similar

CC(/C=C/C(=O)NO)=C\[C@@H](C)C(=O)c1ccc(N(C)C)cc1 [TSA, Trichostatin A]
Percent Inhibition ([2]; HDAC 1-3, standard at 0.0025 uM): NIA
Percent Inhibition ([2]; HDAC 1-3, standard at 0.005 uM): NIA
Percent Inhibition ([2]; HDAC 1-3, standard at 0.05 uM): 33%
Percent Inhibition ([2]; HDAC 1-3, standard at 0.1 uM): 49%
Percent Inhibition ([2]; HDAC 1-3, standard at 1 uM): 68%
